Where a SMILES comes first, the peptide text is derived from it. [ ]: non-standard residue; d: D form. αMeF = C[C@](N)(Cc1ccccc1)C(=O)O; Aib = CC(C)(N)C(=O)O
Assays:
Format in all cases: cell-based
Details in all cases: n = 2
hGluc-R = biological target: T1, hGluc-R (Homo sapiens, UniProt P47871); assay: cAMP functional assay, cells expressing human glucagon receptor (primary assay)
T1 construct: expressed in transfected cells
Experimental: The biological activities/receptor potencies of the synthetic GLP-1 peptides described herein are suitably tested for biological activity, e.g., stimulation of one or more cellular receptor responses. Stable cell lines expressing human, mouse, rat, or dog GLP-1 receptor (GLP-1R), glucagon receptor (GCGR) or glucose-dependent insulinotropic peptide (gastric inhibitory polypeptide) receptor (GIPR) are generated in HEK293 cells or CHO cells by standard methods.
cAMP assays were performed using “assay buffer”: Assay Buffer: 0.1% BSA (Sigma #A3059) in HBSS (Sigma #H8264) with 25 mM HEPES, pH 7.4 and containing 0.5 mM IBMX (Sigma #17018).
Low protein binding 384-well plates (Greiner #781280) are used to perform eleven 1 in 5 serial dilutions of test samples which are made in assay buffer. All sample dilutions are made in duplicate.
A frozen cryo-vial of cells expressing the receptor of interest is thawed rapidly in a water-bath, transferred to pre-warmed assay buffer and spun at 240× g for 5 minutes. Cells are re-suspended in assay buffer at a batch-dependent optimized concentration (e.g. hGCGR cells at 2×10^5 cells/ml, hGLP-1R and hGIPR cells at 1×10^5 cells /ml).
From the dilution plate, a 5 μL replica is stamped onto a black shallow-well u-bottom 384-well plate (Corning #3676). To this, 5 μL cell suspension is added and the plates incubated at room temperature for 30 minutes.
cAMP levels are measured using a commercially available cAMP dynamic 2 HTRF kit (Cisbio, Cat #62AM4PEJ), following the two step protocol as per manufacturer's recommendations. In brief; anti-cAMP cryptate (donor fluorophore) and cAMP-d2 (acceptor fluorophore) are made up separately by diluting each 1/20 in conjugate & lysis buffer provided in the kit. 5 μL anti-cAMP cryptate is added to all wells of the assay plate, and 5 μL cAMP-d2 is added to all wells except non-specific binding (NSB) wells, to which conjugate and lysis buffer are added. Plates are incubated at room temperature for one hour and then read on an Envision (Perkin Elmer) using excitation wavelength of 320 nm and emission wavelengths of 620 nm & 665 nm. EC50 values of the synthetic peptides determined in cAMP assays are then determined.

hGLP-1R = biological target: T2, hGLP-1R (Homo sapiens, UniProt P43220); assay: cAMP functional assay, cells expressing human GLP-1 receptor (primary assay)
T2 construct: expressed in transfected cells
T2 sequence (P43220 24-463): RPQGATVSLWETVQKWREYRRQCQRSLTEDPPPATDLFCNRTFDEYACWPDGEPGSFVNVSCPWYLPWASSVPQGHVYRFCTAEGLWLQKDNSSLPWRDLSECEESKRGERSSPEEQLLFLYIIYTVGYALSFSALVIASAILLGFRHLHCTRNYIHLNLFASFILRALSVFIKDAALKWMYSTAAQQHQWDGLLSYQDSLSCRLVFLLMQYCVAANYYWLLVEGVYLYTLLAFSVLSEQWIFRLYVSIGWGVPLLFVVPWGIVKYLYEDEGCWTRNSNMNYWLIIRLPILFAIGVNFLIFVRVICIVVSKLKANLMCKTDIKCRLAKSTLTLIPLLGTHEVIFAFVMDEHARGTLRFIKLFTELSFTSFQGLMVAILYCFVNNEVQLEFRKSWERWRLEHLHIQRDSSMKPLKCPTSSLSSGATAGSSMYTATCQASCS

hGIP-R = biological target: T3, hGIP-R (Homo sapiens, UniProt P48546); assay: cAMP functional assay, cells expressing human GIP receptor (primary assay)
T3 construct: expressed in transfected cells
T3 sequence (P48546 22-466): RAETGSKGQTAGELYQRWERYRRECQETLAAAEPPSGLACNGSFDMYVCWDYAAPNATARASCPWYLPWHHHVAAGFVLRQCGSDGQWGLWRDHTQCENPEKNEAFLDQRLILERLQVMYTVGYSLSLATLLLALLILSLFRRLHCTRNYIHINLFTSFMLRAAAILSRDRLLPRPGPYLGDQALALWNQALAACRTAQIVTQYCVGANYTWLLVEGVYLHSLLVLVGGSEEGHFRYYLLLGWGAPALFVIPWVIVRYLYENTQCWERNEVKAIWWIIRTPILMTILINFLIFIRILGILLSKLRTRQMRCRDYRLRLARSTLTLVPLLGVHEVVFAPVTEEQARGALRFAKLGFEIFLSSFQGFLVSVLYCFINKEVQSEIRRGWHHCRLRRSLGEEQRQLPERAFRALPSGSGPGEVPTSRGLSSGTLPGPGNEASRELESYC

T1 sequence (P47871 26-477): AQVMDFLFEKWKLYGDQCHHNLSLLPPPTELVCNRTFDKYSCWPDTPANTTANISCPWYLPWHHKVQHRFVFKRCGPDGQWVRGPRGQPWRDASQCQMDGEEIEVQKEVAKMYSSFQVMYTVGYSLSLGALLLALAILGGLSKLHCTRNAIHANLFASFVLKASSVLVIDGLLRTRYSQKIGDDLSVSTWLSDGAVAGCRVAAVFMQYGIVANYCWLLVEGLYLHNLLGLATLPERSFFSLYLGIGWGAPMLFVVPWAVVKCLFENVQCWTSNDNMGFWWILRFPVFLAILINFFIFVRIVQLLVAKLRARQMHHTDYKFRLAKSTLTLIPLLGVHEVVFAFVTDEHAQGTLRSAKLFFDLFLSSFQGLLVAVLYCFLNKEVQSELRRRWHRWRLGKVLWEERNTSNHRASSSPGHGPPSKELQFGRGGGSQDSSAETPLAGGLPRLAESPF

Structure (SMILES): CC[C@H](C)[C@H](NC(=O)[C@H](Cc1ccccc1)NC(=O)[C@H](CCC(=O)O)NC(=O)[C@H](CCCCN)NC(=O)[C@H](C)NC(=O)[C@H](C)NC(=O)[C@H](CCC(N)=O)NC(=O)CNC(=O)[C@H](CCC(=O)O)NC(=O)[C@H](CC(C)C)NC(=O)[C@](C)(Cc1ccccc1)NC(=O)[C@H](CO)NC(=O)[C@H](CO)NC(=O)[C@@H](NC(=O)[C@H](CC(=O)O)NC(=O)[C@H](CO)NC(=O)[C@@H](NC(=O)[C@H](Cc1ccccc1)NC(=O)[C@@H](NC(=O)CNC(=O)[C@H](CCC(=O)O)NC(=O)C(C)(C)NC(=O)[C@@H](N)Cc1c[nH]cn1)[C@@H](C)O)[C@@H](C)O)C(C)C)C(=O)N[C@@H](C)C(=O)N[C@@H](Cc1c[nH]c2ccccc12)C(=O)N[C@@H](CC(C)C)C(=O)N[C@H](C(=O)N[C@@H](CCCCN)C(=O)NCC(=O)N[C@@H](CCCNC(=N)N)C(N)=O)C(C)C [SEQ ID NO: 9, H-(Aib)^2-EGT^5 FTSDV^10 SS-(α-MeF)^13-LE^15 GQAAK^20 EFIAW^25 LVKGR^30] (H-H[Aib]EGTFTSDVSS[αMeF]LEGQAAKEFIAWLVKGR-NH2)
- EC50 (hGluc-R): 141 nM
- EC50 (hGLP-1R): 0.0338 nM
- EC50 (hGIP-R): 141 nM

Structure (SMILES): CC[C@H](C)[C@H](NC(=O)[C@H](Cc1ccccc1)NC(=O)[C@H](CCC(=O)O)NC(=O)[C@H](CCCCN)NC(=O)[C@H](C)NC(=O)[C@H](C)NC(=O)[C@H](CCC(N)=O)NC(=O)CNC(=O)[C@H](CCC(=O)O)NC(=O)[C@H](CC(C)C)NC(=O)[C@H](Cc1ccc(O)cc1)NC(=O)[C@H](CO)NC(=O)[C@H](CO)NC(=O)[C@@H](NC(=O)[C@H](CC(=O)O)NC(=O)[C@H](CO)NC(=O)[C@@H](NC(=O)[C@H](Cc1ccccc1)NC(=O)[C@@H](NC(=O)CNC(=O)[C@H](CCC(=O)O)NC(=O)C(C)(C)NC(=O)[C@@H](N)Cc1c[nH]cn1)[C@@H](C)O)[C@@H](C)O)C(C)C)C(=O)N[C@@H](C)C(=O)N[C@@](C)(Cc1ccccc1)C(=O)N[C@@H](CC(C)C)C(=O)N[C@H](C(=O)N[C@@H](CCCCN)C(=O)NCC(=O)N[C@@H](CCCNC(=N)N)C(N)=O)C(C)C [SEQ ID NO: 14, H-(Aib)^2-EGT^5 FTSDV^10 SSYLE^15 GQAAK^20 EFIA-(α-MeF)^25 LVKGR^30]
- EC50 (hGluc-R): 170 nM
- EC50 (hGLP-1R): 0.0196 nM
- EC50 (hGIP-R): 170 nM

Structure (SMILES): CC[C@H](C)[C@H](NC(=O)[C@H](Cc1ccccc1)NC(=O)[C@H](CCC(=O)O)NC(=O)C(C)(C)NC(=O)[C@H](C)NC(=O)[C@H](C)NC(=O)[C@H](CCC(N)=O)NC(=O)CNC(=O)[C@H](CCC(=O)O)NC(=O)[C@H](CC(C)C)NC(=O)[C@H](Cc1ccc(O)cc1)NC(=O)[C@H](CO)NC(=O)[C@H](CO)NC(=O)[C@@H](NC(=O)[C@H](CC(=O)O)NC(=O)[C@H](CO)NC(=O)[C@@H](NC(=O)[C@H](Cc1ccccc1)NC(=O)[C@@H](NC(=O)CNC(=O)[C@H](CCC(=O)O)NC(=O)C(C)(C)NC(=O)[C@@H](N)Cc1c[nH]cn1)[C@@H](C)O)[C@@H](C)O)C(C)C)C(=O)N[C@@H](C)C(=O)N[C@@H](Cc1c[nH]c2ccccc12)C(=O)N[C@@H](CC(C)C)C(=O)N[C@H](C(=O)N[C@@H](CCCCN)C(=O)NCC(=O)N[C@@H](CCCNC(=N)N)C(N)=O)C(C)C [SEQ ID NO: 21, H-(Aib)^2-EGT^5 FTSDV^10 SSYLE^15 GQAA-(Aib)^26 EFIAW^25 LVKGR^30]
- EC50 (hGluc-R): 76.5 nM
- EC50 (hGLP-1R): 0.02 nM
- EC50 (hGIP-R): 76.5 nM

Structure (SMILES): CC[C@H](C)[C@H](NC(=O)[C@H](Cc1ccccc1)NC(=O)[C@H](CCC(=O)O)NC(=O)[C@H](CCCCN)NC(=O)[C@H](C)NC(=O)[C@H](C)NC(=O)[C@H](CCC(N)=O)NC(=O)CNC(=O)[C@H](CCC(=O)O)NC(=O)[C@H](CC(C)C)NC(=O)[C@H](Cc1ccc(O)cc1)NC(=O)[C@H](CO)NC(=O)[C@H](CO)NC(=O)[C@@H](NC(=O)[C@H](CC(=O)O)NC(=O)[C@H](CO)NC(=O)[C@@H](NC(=O)[C@H](Cc1ccccc1)NC(=O)[C@@H](NC(=O)CNC(=O)[C@H](CCC(=O)O)NC(=O)C(C)(C)NC(=O)[C@@H](N)Cc1c[nH]cn1)[C@@H](C)O)[C@@H](C)O)C(C)C)C(=O)N[C@@H](C)C(=O)N[C@@H](Cc1c[nH]c2ccccc12)C(=O)N[C@@H](CC(C)C)C(=O)N[C@H](C(=O)N[C@@H](CCCCN)C(=O)NCC(=O)NC(C)(C)C(N)=O)C(C)C [SEQ ID NO: 25, H-(Aib)^2-EGT^5 FTSDV^10 SSYLE^15 GQAAK^20 EFIAW^25 LVKG-(Aib)^30]
- EC50 (hGluc-R): 96.4 nM
- EC50 (hGLP-1R): 0.0277 nM
- EC50 (hGIP-R): 96.4 nM

Structure (SMILES): CC[C@H](C)[C@H](NC(=O)[C@](C)(Cc1ccccc1)NC(=O)[C@H](CCC(=O)O)NC(=O)[C@H](CCCCN)NC(=O)[C@H](C)NC(=O)[C@H](C)NC(=O)[C@H](CCC(N)=O)NC(=O)CNC(=O)[C@H](CCC(=O)O)NC(=O)[C@H](CC(C)C)NC(=O)[C@H](Cc1ccc(O)cc1)NC(=O)[C@H](CO)NC(=O)[C@H](CO)NC(=O)[C@@H](NC(=O)[C@H](CC(=O)O)NC(=O)[C@H](CO)NC(=O)[C@@H](NC(=O)[C@H](Cc1ccccc1)NC(=O)[C@@H](NC(=O)CNC(=O)[C@H](CCC(=O)O)NC(=O)C(C)(C)NC(=O)[C@@H](N)Cc1c[nH]cn1)[C@@H](C)O)[C@@H](C)O)C(C)C)C(=O)N[C@@H](C)C(=O)N[C@@H](Cc1c[nH]c2ccccc12)C(=O)N[C@@H](CC(C)C)C(=O)N[C@H](C(=O)N[C@@H](CCCCN)C(=O)NCC(=O)N[C@@H](CCCNC(=N)N)C(N)=O)C(C)C [SEQ ID NO: 11, H-(Aib)^2-EGT^5 FTSDV^10 SSYLE^15 GQAAK^20 E-(α-MeF)^22IAW^25 LVKGR^30]
- EC50 (hGluc-R): 153 nM
- EC50 (hGLP-1R): 0.0547 nM
- EC50 (hGIP-R): 153 nM

Structure (SMILES): CC[C@H](C)[C@H](NC(=O)C(C)(C)NC(=O)[C@H](CCC(=O)O)NC(=O)[C@H](CCCCN)NC(=O)[C@H](C)NC(=O)[C@H](C)NC(=O)[C@H](CCC(N)=O)NC(=O)CNC(=O)[C@H](CCC(=O)O)NC(=O)[C@H](CC(C)C)NC(=O)[C@H](Cc1ccc(O)cc1)NC(=O)[C@H](CO)NC(=O)[C@H](CO)NC(=O)[C@@H](NC(=O)[C@H](CC(=O)O)NC(=O)[C@H](CO)NC(=O)[C@@H](NC(=O)[C@H](Cc1ccccc1)NC(=O)[C@@H](NC(=O)CNC(=O)[C@H](CCC(=O)O)NC(=O)C(C)(C)NC(=O)[C@@H](N)Cc1c[nH]cn1)[C@@H](C)O)[C@@H](C)O)C(C)C)C(=O)N[C@@H](C)C(=O)N[C@@H](Cc1c[nH]c2ccccc12)C(=O)N[C@@H](CC(C)C)C(=O)N[C@H](C(=O)N[C@@H](CCCCN)C(=O)NCC(=O)N[C@@H](CCCNC(=N)N)C(N)=O)C(C)C [SEQ ID NO: 12, H-(Aib)^2-EGT^5 FTSDV^10 SSYLE^15 GQAAK^20 E-(Aib)^22IAW^25 LVKGR^30] (H-H[Aib]EGTFTSDVSSYLEGQAAKE[Aib]IAWLVKGR-NH2)
- EC50 (hGluc-R): 147 nM
- EC50 (hGLP-1R): 2.58 nM
- EC50 (hGIP-R): 147 nM

Structure (SMILES): CC[C@H](C)[C@H](NC(=O)[C@H](Cc1ccccc1)NC(=O)[C@H](CCC(=O)O)NC(=O)[C@H](CCCCN)NC(=O)[C@H](C)NC(=O)[C@H](C)NC(=O)[C@H](CCC(N)=O)NC(=O)CNC(=O)[C@H](CCC(=O)O)NC(=O)[C@H](CC(C)C)NC(=O)[C@H](Cc1ccc(O)cc1)NC(=O)[C@H](CO)NC(=O)[C@H](CO)NC(=O)[C@@H](NC(=O)[C@H](CC(=O)O)NC(=O)[C@H](CO)NC(=O)[C@@H](NC(=O)[C@H](Cc1ccccc1)NC(=O)[C@@H](NC(=O)CNC(=O)[C@H](CCC(=O)O)NC(=O)C(C)(C)NC(=O)[C@@H](N)Cc1c[nH]cn1)[C@@H](C)O)[C@@H](C)O)C(C)C)C(=O)N[C@@H](C)C(=O)N[C@@H](Cc1c[nH]c2ccccc12)C(=O)N[C@@H](CC(C)C)C(=O)N[C@H](C(=O)NC(C)(C)C(=O)NCC(=O)N[C@@H](CCCNC(=N)N)C(N)=O)C(C)C [SEQ ID NO: 23, H-(Aib)^2-EGT^5 FTSDV^10 SSYLE^15 GQAAK^20 EFIAW^25 LV-(Aib)^28-GR^30]
- EC50 (hGluc-R): 103 nM
- EC50 (hGLP-1R): 0.0279 nM
- EC50 (hGIP-R): 105 nM
